Experimental findings from ChEMBL document CHEMBL1149996, “Combined glycomimetic and multivalent strategies for the design of potent selectin antagonists” (Bioorg Med Chem Lett, 1996) are described below.

The assay addresses T1, E-selectin (Homo sapiens, UniProt P16581).
T1 sequence (P16581 whole entry): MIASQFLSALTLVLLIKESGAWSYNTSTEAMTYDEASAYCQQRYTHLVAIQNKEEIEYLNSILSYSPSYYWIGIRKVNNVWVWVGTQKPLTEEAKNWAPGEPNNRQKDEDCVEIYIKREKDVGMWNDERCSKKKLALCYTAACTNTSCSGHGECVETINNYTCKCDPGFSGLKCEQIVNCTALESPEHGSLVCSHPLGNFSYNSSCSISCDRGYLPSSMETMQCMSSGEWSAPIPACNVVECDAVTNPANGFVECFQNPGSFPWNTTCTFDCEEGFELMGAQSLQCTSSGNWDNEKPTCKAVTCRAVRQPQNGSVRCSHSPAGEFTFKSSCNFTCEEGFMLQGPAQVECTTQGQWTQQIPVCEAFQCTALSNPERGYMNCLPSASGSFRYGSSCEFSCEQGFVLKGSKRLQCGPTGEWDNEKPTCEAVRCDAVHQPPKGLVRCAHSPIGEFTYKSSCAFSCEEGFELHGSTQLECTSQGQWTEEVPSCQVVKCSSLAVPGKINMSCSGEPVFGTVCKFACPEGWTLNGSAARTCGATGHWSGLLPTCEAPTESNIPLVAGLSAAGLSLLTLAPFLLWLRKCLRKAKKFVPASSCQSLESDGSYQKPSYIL
In words: Inhibitory activity against Selectin E.

SMILES strings stand for the structures.

The IC50 is the point on the concentration scale where inhibition reaches its midpoint. A lower IC50 goes with greater potency. With `CC(=O)N[C@H]1[C@H]([C@H](O)[C@H](O)CO)O[C@@](O[C@H]2[C@@H](O)[C@@H](CO)O[C@@H](O[C@@H]([C@H](O[C@@H]3O[C@@H](C)[C@@H](O)[C@@H](O)[C@@H]3O)[C@H](C=O)NC(C)=O)[C@H](O)CO)[C@@H]2O)(C(=O)O)C[C@@H]1O` [SIALYL LEWIS X], the IC50 is less than 1000 µM.
